{"source": "patent US20150359794A1", "about": "“IMPAIRMENT OF THE LARGE RIBOSOMAL SUBUNIT PROTEIN RPL24 BY DEPLETION OR ACETYLATION” (Buck Institute for Research on Aging, priority 2014, published 2015)", "key": {"ribosomal protein": {"system": "ribosomal protein", "assay": "Acetyl-lysine western blot of ribopellets (ribosomal protein acetylation)", "format": "cell-based, human", "settings": "SKBR3 cells", "experimental": "(§1) Previous studies have shown that pan-inhibitors of class I and II histone deacetylases, like TSA, can rapidly destabilize a number of oncogenic transcripts including HER2 in a cycloheximide-dependent manner (FIG. 9). […] Thus, SKBR3 cells were treated with TSA to evaluate polysome protein acetylation and determine if, similar to RPL24 depletion, histone deacetylase inhibition can affect ribosome assembly dynamics. To detect early (2 h) ribosome or polysome acetylation following histone deacetylase inhibition treatment (1 μM TSA), SKBR3 polysomes were isolated using a discontinuous sucrose gradient as previously described. […] Mass spectrometry studies indicate that 15 ribosomal proteins, 11 large subunit proteins (RPL24 included) and 4 small subunit proteins, underwent at least a two-fold induction in acetylation following 2 h or 6 h TSA treatment (1 μM) (FIG. 4b, FIG. 10a-q).\nLike TSA, the HDAC6 (class IIb)-selective inhibitors, Tubacin and Compound 101, as well as HDAC6 siRNA, all induce tubulin acetylation as expected as well as ribosomal protein acetylation, including the band that co-migrates with RPL24 (FIG. 4c,d, indicated by arrows). […] Thus, the tubulin acetylating effects of pan-histone deacetylase inhibition, known to be mediated by inhibition or knockdown of HDAC6, correspond to the observed ribosome and RPL24 acetylation responses induced by TSA.\nCells are lysed in RIPA buffer (10 mM Tris-HCL (pH 8.0), 1 mM EDTA, 0.5 mM EGTA, 1% triton X-100, 0.1% sodium deoxycholate, 0.1% SDS, 140 mM NaCl, 20 mM NaF, Complete EDTA-free protease inhibitor tablets (Roche Diagnostics Corp., Basel, Switzerland) and the phosphatase inhibitor cocktail PhosSTOP (Roche)), the latter two as indicated by the manufacturer's protocol. Equal amounts of protein are diluted in 2× sample buffer. Immunoblots on PVDF (Polyvinyldene Fluoride) membranes are blocked with nonfat milk in tris-buffered saline with 0.05% tween-20 (TBST). The following antibodies are incubated with membranes in 5% nonfat milk in TBST: RPL24 (Proteintech, Chicago, Ill.), Cyclin D1, Rack1, RPL4 (Santa Cruz Biotechnology, Santa Cruz, Calif.), NBS1, GAPDH (EMD Millipore Corporation, Chicago, Ill.), Survivin, β-tubulin, acetyl-lysine, eIF6, acetyl-H2B, H2B, (Cell Signaling Technology, Boston, Mass.), acetyl-tubulin, tubulin (Sigma Aldrich (St. Louis, Mo.))\nCells, plated at […] confluency, are treated as indicated. After treatment, cells are treated with 50 μg/ml cycloheximide for 15 minutes. Cells are lysed with a buffer containing 10 mM HEPES, 10 mM KCl, 75 mM NaCl, 10 mM MgCl2, 0.35% NP40, pH 7.9 supplemented with Complete EDTA-free protease inhibitor tablets, PhosSTOP phosphatase inhibitor tablets (Roche) per manufacturer's instructions, 50 μg/ml cycloheximide, SUPERase RNase inhibitors (Life Technologies) per manufacturer's instructions, 15 μM TSA, and 5 mM nicotinimide to inhibit histone deacetylases. Supernatants are collected as cytoplasmic preparations. Where indicated, pellets containing nuclei are resuspended in RIPA buffer (described above). The suspension is spun at 13,000 rpm for 5 min and supernatants are collected as nuclear preparations.\nRibosomes are subsequently isolated from cytoplasmic preparations as described previously. Briefly, lysates are layered on top of a 12% and 33% discontinuous sucrose gradient and spun at 38,000 rpm for 2 h. The resulting polysome pellet is then resuspended, stripped of RNA with acetic acid, and then pelleted with acetone. The pellet is then resuspended in 8 M urea, 2% CHAPS, and 25 mM dithiothreitol (DTT).\nFIG. 4: Ribosomal protein acetylation is induced by histone deacetylase inhibition. (a-c) SKBR3 cells were treated with the indicated drugs for the indicated period of time. (d) SKBR3 cells were transfected with the indicated siRNAs and allowed to incubate for 72 hours. (a, c, d). The indicated western blots were performed in ribopellets, total cytoplasmic lysates, or nuclear extracts. […]"}, "HER2 mRNA": {"system": "HER2 mRNA", "assay": "Northern blot of HER2 transcript levels", "format": "cell-based, human", "settings": "SKBR3 cells, TSA 1 μM, 6 h", "experimental": "as §1\nCells are harvested and RNA is extracted using Trizol (Life Technologies) per manufacturer's protocol. Northern blots are performed as previously described. Briefly, RNA is then electrophoresed into 1% agarose-formaldehyde gels and transferred onto PVDF membranes. Membranes are then hybridized with ^32P-labelled cDNA probes for HER2 or GAPDH, washed, and visualized by autoradiography.\nSKBR3 cells were treated with TSA (1 μM, 6 h) and/or cycloheximide (CX, 50 μg/ml, 6 h) or with the respective vehicle controls. […]"}}, "data": [{"molecule": "CC(/C=C/C(=O)NO)=C\\[C@@H](C)C(=O)c1ccc(N(C)C)cc1", "note": "[TSA, trichostatin-A]", "values": [{"measurement": "acetyl-lysine protein bands in polysomes, including band co-migrating with RPL24", "setting": "ribosomal protein; 1 μM TSA, 2 h, western blot", "result": "several TSA-induced bands"}, {"measurement": "total RPL24 levels", "setting": "ribosomal protein; 1 μM TSA, 2 h, western blot", "result": "not altered"}, {"measurement": "ribosomal protein acetylation, including the band that co-migrates with RPL24", "setting": "ribosomal protein; western blot of ribopellets (FIG. 4c,d)", "result": "induce"}, {"measurement": "HER2 mRNA decay", "setting": "HER2 mRNA", "result": "TSA-induced HER2 mRNA decay"}]}]}
